This passage reports IC50 results from BindingDB's records for doi:10.1074/jbc.M112.443390 (The Ohio State University, 2013).

As a reminder, the IC50 is the concentration needed to halve the response being measured. Higher therefore signals a need for much substance.

The target of assay [1] is T1, Gag-Pol polyprotein (Human immunodeficiency virus type 1 group M subtype B (isolate NY5), UniProt P12497). Nature of the assay: 3'-Processing Assay. An excerpt: (§1) A recently reported time-resolved fluorescence assay [J. Biol. Chem. 287: 21189-21203] was used to quantify IN 3'-processing and strand transfer activities.
Assay [2] addresses T2, Gag-Pol polyprotein [A1275T] (Human immunodeficiency virus type 1 group M subtype B (isolate NY5), UniProt P12497, A1275T). Nature of the assay: 3'-Processing Assay.
Text: as §1

For assay [3], the target named is T1, Gag-Pol polyprotein. Nature of the assay: Strand Trasnfer Assay.
Text: as §1

Assay [4] concerns the target T2, Gag-Pol polyprotein [A1275T]. Nature of the assay: Strand Trasnfer Assay.
Text: as §1

Turning to `CO[C@H](C(=O)O)c1c(C)nc2ccc(Br)cc2c1-c1ccc(Cl)cc1`, the IC50 at Gag-Pol polyprotein [1] stood at 910 nM; in assay [2] it was 261000 nM; against Gag-Pol polyprotein [3], 400 nM; in assay [4], 4610 nM.

On to `Cc1nc2ccc(Br)cc2c(-c2ccc(Cl)cc2)c1C(OC(C)(C)C)C(=O)O` (stereo not drawn) [ALLINI-2], for which the half-maximal inhibitory concentration (IC50) on Gag-Pol polyprotein [1] worked out at 180 nM; in assay [2], 200000 nM; at Gag-Pol polyprotein [3], 170 nM; in assay [4], 890 nM.
